Data published in PMC6553708 (PLoS ONE, 2019).
Values joined by “and” are separate entries in the source; they are usually repeats but may differ in a detail not shown here. Equal entries are not always repeated. Where two headings read alike, the source gives them in different places.

Legend:
[1] = target: T1, Mu Opioid Receptor (MOR) (Homo sapiens, UniProt P35372); test: biochemical; conditions: for Emax: read-out: MOR EMAX (35S-GTPγS)
[2] = target: T2, Serotonin Transporter (SERT) (Homo sapiens, UniProt P31645); test: cell-based
T2 construct: HA (N); host or cells: HEK293 (ATCC CRL-1573), electroporated, G418-selected population

[3] = target: T3, Sigma-1 Receptor (σ1R) (Homo sapiens, UniProt Q99720); test: biochemical; assay type: binding
T3 construct: HA (N); host or cells: HEK293 (ATCC CRL-1573), electroporated, G418-selected population; membranes used

[4] = target: T4, Cannabinoid Receptor Type 1 (CB1) (Homo sapiens, UniProt P21554); test: biochemical
T4 construct: membranes used

[5] = cited from earlier work
[6] = target: T5, Kappa Opioid Receptor (KOR) (Homo sapiens, UniProt P41145); test: biochemical; assay type: binding
T5 construct: membranes used

[7] = target: T6, Delta Opioid Receptor (DOR) (Homo sapiens, UniProt P41143); assay type: biochemical
T6 construct: 3X-hemagglutinin (HA) (N); expressed in transfected cells; membranes used

[8] = target: T5, Kappa Opioid Receptor (KOR); test: biochemical; conditions: for Emax at 10 µM: read-out: KOR EMAX, in parentheses: maximum efficacy at 10 μM
[9] = target: T7, Norepinephrine Transporter (NET) (Homo sapiens, UniProt P23975); test: cell-based; conditions: for Emax at 10 µM: read-out: NET IMAX, in parentheses: maximum efficacy at 10 μM
T7 construct: HA (N); host or cells: HEK293 (ATCC CRL-1573), electroporated, G418-selected population

[10] = target: T5, Kappa Opioid Receptor (KOR); assay type: biochemical
[11] = system: MOR; conditions: cited from earlier work
[12] = system: CD-1 mice; conditions: male CD-1 mice
[13] = target: T1, Mu Opioid Receptor (MOR); test: biochemical; assay type: binding
[14] = target: T2, Serotonin Transporter (SERT); test: biochemical; assay type: binding
[15] = target: T8, Dopamine Transporter (DAT) (Homo sapiens, UniProt Q01959); test: biochemical; assay type: binding
T8 construct: HA (N); host or cells: HEK293 (ATCC CRL-1573), electroporated, G418-selected population

[16] = target: T8, Dopamine Transporter (DAT); test: cell-based; assay type: cell-based; conditions: for Emax at 10 µM: read-out: DAT IMAX, in parentheses: maximum efficacy at 10 μM

T3 sequence (Q99720 whole entry): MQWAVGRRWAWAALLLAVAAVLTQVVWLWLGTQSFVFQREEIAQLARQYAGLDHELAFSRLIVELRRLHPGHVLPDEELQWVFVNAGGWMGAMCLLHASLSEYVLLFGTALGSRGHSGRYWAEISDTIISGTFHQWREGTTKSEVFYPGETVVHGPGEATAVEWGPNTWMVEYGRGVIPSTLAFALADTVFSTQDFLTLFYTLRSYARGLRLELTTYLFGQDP
T1 sequence (P35372 whole entry): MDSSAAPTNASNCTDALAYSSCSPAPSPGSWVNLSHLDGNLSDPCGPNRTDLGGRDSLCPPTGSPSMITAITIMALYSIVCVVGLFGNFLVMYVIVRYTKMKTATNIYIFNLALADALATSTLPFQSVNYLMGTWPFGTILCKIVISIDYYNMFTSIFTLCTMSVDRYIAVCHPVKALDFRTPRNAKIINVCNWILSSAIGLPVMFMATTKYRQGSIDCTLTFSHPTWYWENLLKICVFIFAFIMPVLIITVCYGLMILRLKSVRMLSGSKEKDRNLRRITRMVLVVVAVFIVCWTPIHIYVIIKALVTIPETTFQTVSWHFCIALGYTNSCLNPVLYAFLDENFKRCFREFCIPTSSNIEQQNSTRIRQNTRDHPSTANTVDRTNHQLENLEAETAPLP
T8 sequence (Q01959 whole entry): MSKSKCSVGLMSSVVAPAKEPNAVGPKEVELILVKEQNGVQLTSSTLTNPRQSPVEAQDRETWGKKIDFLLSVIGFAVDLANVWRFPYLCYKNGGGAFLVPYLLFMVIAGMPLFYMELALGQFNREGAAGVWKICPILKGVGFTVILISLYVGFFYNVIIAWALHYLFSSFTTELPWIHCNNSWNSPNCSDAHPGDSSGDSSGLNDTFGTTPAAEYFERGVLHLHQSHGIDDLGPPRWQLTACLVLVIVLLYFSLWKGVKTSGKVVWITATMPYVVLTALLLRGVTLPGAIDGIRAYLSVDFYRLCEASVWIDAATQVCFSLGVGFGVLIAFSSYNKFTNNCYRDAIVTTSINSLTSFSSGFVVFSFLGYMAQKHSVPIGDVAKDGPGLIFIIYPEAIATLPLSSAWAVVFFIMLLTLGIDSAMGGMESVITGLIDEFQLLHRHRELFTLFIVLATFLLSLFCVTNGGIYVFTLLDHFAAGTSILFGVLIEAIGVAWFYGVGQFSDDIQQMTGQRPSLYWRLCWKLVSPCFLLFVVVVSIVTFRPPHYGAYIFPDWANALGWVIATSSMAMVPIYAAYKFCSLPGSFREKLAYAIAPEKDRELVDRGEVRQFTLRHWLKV
T7 sequence (P23975 whole entry): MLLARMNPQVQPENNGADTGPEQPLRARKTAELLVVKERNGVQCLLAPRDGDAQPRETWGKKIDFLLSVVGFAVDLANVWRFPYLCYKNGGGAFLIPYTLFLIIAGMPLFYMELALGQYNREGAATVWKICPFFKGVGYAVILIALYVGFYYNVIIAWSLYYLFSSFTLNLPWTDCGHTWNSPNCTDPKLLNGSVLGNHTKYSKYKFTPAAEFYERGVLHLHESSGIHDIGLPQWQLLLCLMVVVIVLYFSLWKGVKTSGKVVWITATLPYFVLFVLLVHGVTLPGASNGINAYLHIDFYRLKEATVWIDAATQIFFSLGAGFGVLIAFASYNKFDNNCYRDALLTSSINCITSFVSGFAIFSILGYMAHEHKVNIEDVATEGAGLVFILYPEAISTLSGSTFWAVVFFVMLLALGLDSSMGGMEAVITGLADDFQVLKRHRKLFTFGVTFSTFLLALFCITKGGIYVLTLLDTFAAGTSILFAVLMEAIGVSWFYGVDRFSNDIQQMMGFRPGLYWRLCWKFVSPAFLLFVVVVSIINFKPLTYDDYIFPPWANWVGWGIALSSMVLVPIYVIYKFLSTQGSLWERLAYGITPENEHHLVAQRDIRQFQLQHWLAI
T5 sequence (P41145 whole entry): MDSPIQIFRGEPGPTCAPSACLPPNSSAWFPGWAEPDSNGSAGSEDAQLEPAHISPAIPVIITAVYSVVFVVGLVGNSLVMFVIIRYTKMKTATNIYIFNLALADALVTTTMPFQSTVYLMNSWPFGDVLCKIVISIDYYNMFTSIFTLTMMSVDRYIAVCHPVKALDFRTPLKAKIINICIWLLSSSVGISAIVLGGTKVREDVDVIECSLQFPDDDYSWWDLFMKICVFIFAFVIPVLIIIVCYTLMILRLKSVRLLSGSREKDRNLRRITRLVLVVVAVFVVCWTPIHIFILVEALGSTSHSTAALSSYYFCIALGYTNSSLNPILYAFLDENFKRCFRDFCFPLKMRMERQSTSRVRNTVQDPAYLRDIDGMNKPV
T2 sequence (P31645 whole entry): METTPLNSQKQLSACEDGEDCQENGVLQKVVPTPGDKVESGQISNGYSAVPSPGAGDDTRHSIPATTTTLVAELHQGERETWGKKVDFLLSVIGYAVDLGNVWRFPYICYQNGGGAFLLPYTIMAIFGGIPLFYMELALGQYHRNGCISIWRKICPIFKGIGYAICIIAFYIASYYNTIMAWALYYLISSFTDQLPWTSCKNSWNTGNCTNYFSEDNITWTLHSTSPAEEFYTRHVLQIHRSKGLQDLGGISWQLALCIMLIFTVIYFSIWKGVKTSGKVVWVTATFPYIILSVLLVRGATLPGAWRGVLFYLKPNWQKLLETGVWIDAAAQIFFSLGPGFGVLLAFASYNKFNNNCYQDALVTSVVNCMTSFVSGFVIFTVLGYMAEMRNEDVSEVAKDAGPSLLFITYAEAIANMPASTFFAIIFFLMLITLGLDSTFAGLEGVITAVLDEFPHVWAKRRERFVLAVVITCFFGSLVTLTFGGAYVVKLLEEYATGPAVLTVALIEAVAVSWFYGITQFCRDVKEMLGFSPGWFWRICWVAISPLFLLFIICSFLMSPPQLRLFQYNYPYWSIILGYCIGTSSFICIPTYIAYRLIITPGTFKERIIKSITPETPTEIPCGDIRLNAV
T4 sequence (P21554 whole entry): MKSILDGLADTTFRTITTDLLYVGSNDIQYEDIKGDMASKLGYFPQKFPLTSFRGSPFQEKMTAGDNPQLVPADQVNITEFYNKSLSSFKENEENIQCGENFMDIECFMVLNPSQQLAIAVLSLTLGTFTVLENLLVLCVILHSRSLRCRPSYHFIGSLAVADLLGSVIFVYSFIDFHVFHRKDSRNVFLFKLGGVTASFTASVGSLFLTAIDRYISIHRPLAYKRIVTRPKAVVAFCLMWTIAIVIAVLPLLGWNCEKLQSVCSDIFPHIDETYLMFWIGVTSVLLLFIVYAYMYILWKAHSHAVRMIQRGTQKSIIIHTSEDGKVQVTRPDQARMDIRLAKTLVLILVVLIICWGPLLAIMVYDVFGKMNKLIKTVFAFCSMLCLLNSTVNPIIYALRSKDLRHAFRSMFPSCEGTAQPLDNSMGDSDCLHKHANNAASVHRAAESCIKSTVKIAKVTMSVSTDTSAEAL
T6 sequence (P41143 whole entry): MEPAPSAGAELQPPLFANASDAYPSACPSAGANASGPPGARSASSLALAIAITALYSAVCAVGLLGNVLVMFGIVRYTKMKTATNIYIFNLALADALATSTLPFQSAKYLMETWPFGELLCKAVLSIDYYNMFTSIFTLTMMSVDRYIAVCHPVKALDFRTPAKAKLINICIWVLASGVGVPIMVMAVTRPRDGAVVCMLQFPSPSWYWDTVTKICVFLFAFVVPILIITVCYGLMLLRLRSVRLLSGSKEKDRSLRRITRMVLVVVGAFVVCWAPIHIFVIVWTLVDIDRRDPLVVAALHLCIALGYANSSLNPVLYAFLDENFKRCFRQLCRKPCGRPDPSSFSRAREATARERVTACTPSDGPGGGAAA

## NC(=O)[C@H](Cc1ccccc1)NC(=O)[C@H](Cc1ccccc1)NC(=O)[C@@H]1CCCN1C(=O)[C@@H](N)Cc1ccc(O)cc1 [Endomorphin-2]
[1]
  Emax: 97 ± 2%

## Fc1ccc(C(OCCN2CCN(CCCc3ccccc3)CC2)c2ccc(F)cc2)cc1 [GBR12909]
[2]
  SERT IMAX (transporter assay): 100 ± 0.4%

## COc1ccc2c3c1O[C@H]1C(=O)CC[C@H]4[C@@H](C2)N(C)CC[C@]314 [Hydrocodone]
[3]
  Ki: 4 ± 1.3 µM
  Potential new finding: σ1R binding (in words): KOR partial agonist; CB1 partial agonist; σ1R binding

## CN1CC[C@]23c4c5ccc(O)c4O[C@H]2[C@@H](O)C=C[C@H]3[C@H]1C5 [Morphine]
[4]
  EC50: > 2 µM
  Potential new finding: activity at CB1 (in words): CB1 partial agonist
[4]; read-out: CB1 EMAX, in parentheses: maximum efficacy at 10 μM
  Emax at 10 µM: > 41.5%
[5]; ref [13]–[15]
  operational efficacy τ in vivo: 20–39 and 39

## CN(C)C[C@H]1CCCC[C@]1(O)c1cccc(O)c1 [O-Desmethyl-Tramadol, O-desmethyl-tramadol]
[6]; read-out: Target Binding Affinity Determined by Competition Radioligand Binding–KI, KOR
  Ki: > 2 µM
[7]
  DOR EMAX (35S-GTPγS): 38 ± 14%
  Potential new finding: activity at DOR (in words): DOR/KOR partial agonist
[7]; read-out: DOR EC50 (35S-GTPγS)
  EC50: 0.361 µM and 0.36 µM
[8]
  KOR EMAX, in parentheses: maximum efficacy at 10 μM: (5.9) %
  Potential new finding: activity at KOR (in words): DOR/KOR partial agonist
[8]; read-out: KOR EC50 (35S-GTPγS)
  EC50: > 2 µM
[9]
  NET IMAX, in parentheses: maximum efficacy at 10 μM: (29) %
[9]; read-out: NET IC50 (transporter assay)
  IC50: > 2 µM

## COc1ccc2c3c1O[C@H]1C(=O)CC[C@@]4(O)[C@@H](C2)N(C)CC[C@]314 [Oxycodone]
[1]
  Emax: 90 ± 8%
[8]
  Emax at 10 µM: 9.6%
[10]
  KOR antagonist activity (in words): no KOR antagonist activity
[5]
  operational efficacy τ in vivo: 20–39
[11]
  operational efficacy τ in vitro: 3.3–5.2

## CNCC[C@H](Oc1cccc2ccccc12)c1cccs1 [S-Duloxetine, S-duloxetine]
[12]; duloxetine 20 mg/kg intraperitoneal 10 minutes before buprenorphine 0.2 mg/kg subcutaneous, 52°C water, 2 hour time course
  AUC increase of buprenorphine anti-nociception (tail flick): 50.6%
[12]; duloxetine 20 mg/kg intraperitoneal 10 minutes before oxymorphone 0.3 mg/kg subcutaneous, p > 0.05
  Effect on oxymorphone anti-nociception (tail flick): no effect
[12]; duloxetine 20 mg/kg intraperitoneal alone (followed by vehicle)
  Effect on tail flick baselines: no effect

## CC[C@@H](c1cccc(O)c1)[C@@H](C)CN(C)C [Tapentadol]
[13]
  Ki: 2.1 ± 0.084 µM
[6]
  Ki: > 2 µM
[3]
  Ki: 2.6 ± 0.41 µM
  Potential new finding: σ1R binding (in words): KOR partial agonist; σ1R binding
  σ1R binding affinity fold vs. MOR affinity: nearly the same affinity as the MOR and approximately equal affinity to MOR and same
[14]
  Ki: > 2 µM
[15]
  Ki: > 2 µM
[1]; MOR EC50 (35S-GTPγS)
  EC50: 1.3 ± 0.53 µM
[1]
  Emax: 73 ± 7%
[8]
  Potential new finding: activity at KOR (in words): KOR partial agonist; σ1R binding
  Emax at 10 µM: 13%
[8]; KOR EC50 (35S-GTPγS)
  EC50: > 2 µM
[9]
  IC50: > 2 µM
  Emax at 10 µM: 61%
[2]
  IC50: > 2 µM
[2]; read-out: SERT IMAX, in parentheses: maximum efficacy at 10 μM
  Emax at 10 µM: 68%
[16]
  IC50: > 10 µM
  Emax at 10 µM: 19%

## COc1cccc(C2(O)CCCCC2CN(C)C)c1 (stereo not shown) [Tramadol]
[6]
  Ki: 0.89 ± 0.033 µM
[15]
  Ki: > 2 µM
[1]
  MOR EMAX (35S-GTPγS): 26 ± 6%
  Emax: 25.5%
[9]
  Emax at 10 µM: 57%
[16]
  IC50: > 10 µM
  Emax at 10 µM: 22%
[10]
  KOR antagonist activity (in words): no KOR antagonist activity

## CCC(=O)C(CC(C)N(C)C)(c1ccccc1)c1ccccc1 (stereo not shown) [methadone]
[5]
  operational efficacy τ in vivo: 39

## Buprenorphine
[4]
  CB1 EMAX, in parentheses: maximum efficacy at 10 μM: (-38) %
  Potential new finding: activity at CB1 (in words): CB1 inverse agonist; Monoamine transporter activator
[9]
  NET IMAX, in parentheses: maximum efficacy at 10 μM: (-26) %
  Potential new finding: activity at NET (in words): CB1 inverse agonist; Monoamine transporter activator
[2]
  Potential new finding: activity at SERT (in words): CB1 inverse agonist; Monoamine transporter activator
  SERT IMAX, in parentheses: maximum efficacy at 10 μM: (-20) %
[16]
  DAT IMAX, in parentheses: maximum efficacy at 10 μM: (-67) %
  DAT transport activation: 67.2%
  Potential new finding: activity at DAT (in words): CB1 inverse agonist; Monoamine transporter activator
